Measured values as given in patent US20170037425A1, “METHOD FOR IMPROVING PLANT TRAIT” (SHANGHAI INSTITUTES FOR BIOLOGICAL SCIENCES, CHINESE …, priority 2012, published 2017).

Legend:
[1] = In vitro H2O hydrolysis and oxygen evolution catalyzed by LEAT protein under light; assay type: biochemical; design: key to O2 evolution activity: +: similar O2 evolution activity as that of YFP; ++: higher O2 evolution activity than that of YFP by at least one order of magnitude; weak: lower activity than that of YFP by at least one order of magnitude; settings: for O2 evolution activity: water hydrolysis and O2 evolution under light, relative to YFP
Method: 1.85 ml of 50 mM phosphate buffer (pH6.5) was added in the reaction vessel of Clark-type oxygen electrode, then LEAT proteins (at a final concentration of 0.02-1 μg/ml) and 400 μM 2,3,5-trimethyl-1,4-benzoquinone (TMBQ) or other quinones were sequentially added into the buffer in dark. The oxygen evolution rate was measured under the light with corresponding excitation wave length for LEAT proteins and light intensity at 1-2 μmol m^−2 s^−1.

[2] = Electron donation by pre-illuminated LEAT protein (NAD+/NADP+ reduction); assay type: biochemical
Method: FIG. 1. The effects of light on NAD^+ or NAPD^+ reduction by YFP.
It was reported that proteins such as GFP can function as electron donor to reduce the oxidized small compounds such as NAD^+, potassium ferricyanide, and some proteins such as cytochrome c, and FAD-containing proteins (Bogdanov A. M. et al, 2009, Nature Chemical Biology. 5:459-461), The invertors used E. coli to express and purify recombinant proteins. […] Quinone reduction under light was analyzed by monitoring the decrease of absorption at 436 nm.

[3] = system: Brassica; experiment: Growth, biomass and yield of transgenic Brassica; assay type: in vivo, Brassica napus L.; settings: T1 transgenic Brassica, vegetative stage
Text: FIG. 14. (A) WT, empty vector control (pHB) and mCherry transgenic Brassica (L1-L3) were germinated and grown for one week in the phytotron under white light (PPFD:250 μmol m^−2s^−1). Then the plants were moved and grown under white light, green light (PFD: 60 μmol m^−2s^−1) or red+blue light (red light PFD; 60 μmol m^−2s^−1, blue light PFD; 10 μmol m^−2s^−1) for another 3 weeks and photos were taken, (B) Comparison of the fresh weights and dry weights of WT and mCherry transgenic Brassica grown under white light, green light or red+blue light for four weeks. Values in the figures are means±SD, for WT, n=10, for transgenic plant transformed with empty vector control pHB and mCherry, data were the averages of three independent lines and 10 plants for each line. **p≦0.01. (C) Net photosynthetic rate of WT and mCherry transgenic Brassica measured under different light qualities. Nine-week-old WT and mCherry transgenic Brassica grown in the phytotron (PPFD: 250 μmol m^−2s^−1) were transferred and treated with different qualities of light for 4 days and net photosynthetic rate was measured. (D) Net photosynthetic rate of WT and mCherry transgenic Brassica grow in the natural field measured under different PPFD as light source. Net photosynthetic rate was measured in situ between 10:00 am and 12:00 pm. […] FIG. 15. (A) Measurement of the fresh weight and dry weight per plant of 7-week-old WT and mCherry transgenic Brassica plants grown in the natural field conditions. Values in the figures are means±SD, n=10. *p≦0.05, **p≦0.01. (B) Comparison of the plant size, silique size, seed size, grain yield per plant and 1000-seed weight at the harvesting time. Values in the figures are means±SD, n=10. *p≦0.05, **p≦0.01. Wild type (WT), transgenic Brassica with empty vector (pHB) and mCherry transgenic Brassica (L1-L3) were germinated in the phytotron under white light (light intensity: 250 μmol m^−2s^−1) for 1 week. Then the plants were transferred and continued to grow under white light, green light (light intensity: 60 μmol m^−2s^−1), red+blue light (intensity of red light: 60 μmol m^−2s^−1; intensity of blue light: 10 μmol m^−2s^−1). The […] were taken three weeks after transfer.

Substance: YFP: yellow fluorescent protein, amino acid sequence SEQ ID NO: 8
- water photohydrolysis and O2 evolution activity under light ([1]; TMBQ substituted with DQ or UQ): does not have water photohydrolysis and O2 evolution activity
- activity of water hydrolysis among the quinones tested (order) ([1]; different quinones, under light): TMBQ>DMBQ2>MBQ>DMBQ1
- O2 evolution activity [1]: +
- function as electron donor under light [2]: cannot continuously provide electrons under light

Substance: eqFP611: fluorescent protein from Entacmaea quadricolor (AY130757), SEQ ID NO: 30
- O2 evolution activity [1]: +

Substance: mCherrymu3: mCherry mutant S151C S152C K167M, SEQ ID NO: 22
- O2 evolution rate, increase ([1]; vs non-mutated protein, under light): 6 folds
- plant growth vs WT [3]: grow better than WT

Substance: mCherrymu4: mCherry mutant S151C S152C K167M I202A, SEQ ID NO: 24
- plant growth vs WT [3]: grow better than WT

Substance: mCherrymu5: mCherry mutant S151C S152C H166N K167M I202A, SEQ ID NO: 26
- plant growth vs WT [3]: grow better than WT
